Experimental data published in patent publication US5334600A, “Isoquinolyl substituted hydroxylamine derivatives” (Ciba-Geigy Corporation, priority 1993, dated 1994).

Legend:
[1] = target: T1, 5-lipoxygenase (Cavia porcellus, UniProt A0A286X958); assay: Inhibition of 5-HETE and LTB4 synthesis in A-23187-stimulated guinea pig polymorphonuclear leukocytes; format: cell-based; conditions: read-out: IC50, inhibition of the formation of 5-HETE and leukotriene B4 (LTB4)
T1 construct: A-23187-stimulated guinea pig polymorphonuclear leukocytes; endogenous in cells; host or cells: guinea pig polymorphonuclear leukocytes
T1 sequence (A0A286X958 1-674): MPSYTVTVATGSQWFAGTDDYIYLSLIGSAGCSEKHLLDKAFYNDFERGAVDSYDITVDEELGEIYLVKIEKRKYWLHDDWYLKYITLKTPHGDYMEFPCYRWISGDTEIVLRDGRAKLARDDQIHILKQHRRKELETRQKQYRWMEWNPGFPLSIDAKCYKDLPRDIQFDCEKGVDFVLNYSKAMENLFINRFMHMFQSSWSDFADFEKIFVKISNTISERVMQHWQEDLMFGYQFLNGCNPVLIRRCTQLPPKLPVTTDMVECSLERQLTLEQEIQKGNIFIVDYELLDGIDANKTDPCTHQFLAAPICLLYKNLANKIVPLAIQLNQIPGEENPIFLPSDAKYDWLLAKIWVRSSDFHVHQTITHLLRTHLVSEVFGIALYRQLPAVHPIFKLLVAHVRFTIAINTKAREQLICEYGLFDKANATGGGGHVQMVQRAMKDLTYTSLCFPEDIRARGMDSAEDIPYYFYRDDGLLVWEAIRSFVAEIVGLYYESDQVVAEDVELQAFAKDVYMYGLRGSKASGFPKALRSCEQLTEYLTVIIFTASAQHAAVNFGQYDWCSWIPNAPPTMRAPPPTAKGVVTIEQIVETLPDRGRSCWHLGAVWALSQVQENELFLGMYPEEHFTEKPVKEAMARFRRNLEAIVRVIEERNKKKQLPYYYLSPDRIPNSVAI
Procedure: 5-Lipoxygenase inhibition is determined e.g. by measuring the percent inhibition of the synthesis of 5-HETE [(5S)-5-hydroxy-6,8,11,14-eicosa-tetraenoic acid] and leukotriene B4 (LTB4, 5,12-dihydroxy-6,8, 10, 14-eicosatetraenoic acid) in A-23187-stimulated guinea pig polymorphonuclear leukocytes, essentially according to radiometric thin-layer chromatographic assays described by Walker and Dawson (J. Pharm. Pharmacol. 31: 778, 1979) and Jakschik and Lee (Nature 287: 51, 1980) to measure the formation of 5-HETE and LTB4 -like products from ^14 C-arachidonic acid. IC50 values are determined graphically as the concentration of test compound at which the synthesis of 5-HETE and LTB4 -like products is reduced to 50 % of their respective control values.

[2] = tested on: 5-lipoxygenase; assay: Ex vivo inhibition of A-23187-stimulated LTB4 formation in whole blood after oral administration; conditions: dose of about 1.0 mg/kg p.o. to the dog
Procedure: Furthermore, the inhibition of 5-lipoxygenase is determined after oral or i.v. administration to rats or dogs by measuring ex vivo in whole blood the decrease of A-23187-stimulated LTB4 formation as compared to non-treated control animals.

IC50 [1]: ~500 nM
SMILES: NC(=O)N(O)CCOc1ccc2c(c1)CCN(CCCc1ccccc1)C2=O [1(f), 2-(3-phenylpropyl)-6-[2-(N-aminocarbonyl-N-hydroxyamino)ethoxy]-1-oxo-1,2,3,4-tetrahydroisoquinoline]
inhibition of LTB4 formation as determined ex vivo [2]: significant inhibition
